{"source": "patent US12077503B2", "about": "“Substituted cyclic amides and their use as herbicides” (FMC CORPORATION, priority 2015, dated 2024)", "format_in_all_cases": "in vivo", "key": {"[1]": {"test_system": "Kochia (Kochia scoparia)", "assay": "Test A preemergence", "settings": "for Plant response rating, Kochia: 125 g ai/ha, preemergence, 0 to 100 scale (0 no effect, 100 complete control); for Kochia plant response rating (0 to 100 scale): Preemergence, 500 g ai/ha, 0 is no effect, 100 is complete control", "in_short": "(§1)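 Visual injury scores from 0, no effect, to 100, complete control, were assigned versus untreated controls roughly 10 d after treatment in the greenhouse. Test chemicals, formulated with surfactant in a non-phytotoxic solvent, were applied to planted seeds as a preemergence soil spray or postemergence to one- to two-leaf plants 2 to 10 cm tall, in loam–sand soil.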"}, "[2]": {"test_system": "barnyardgrass (Echinochloa crus-galli)", "assay": "Test A preemergence", "settings": "for Plant response rating, Barnyardgrass: 125 g ai/ha, preemergence, 0 to 100 scale (0 no effect, 100 complete control); for Barnyardgrass plant response rating (0 to 100 scale): Preemergence, 500 g ai/ha, 0 is no effect, 100 is complete control", "in_short": "as §1"}, "[3]": {"test_system": "giant foxtail (Setaria faberii)", "assay": "Test A preemergence", "settings": "for Plant response rating, Foxtail, Giant: 125 g ai/ha, preemergence, 0 to 100 scale (0 no effect, 100 complete control); for Foxtail, Giant plant response rating (0 to 100 scale): Preemergence, 500 g ai/ha, 0 is no effect, 100 is complete control", "in_short": "as §1"}, "[4]": {"test_system": "pigweed (Amaranthus retroflexus)", "assay": "Test A preemergence", "settings": "for Plant response rating, Pigweed: 125 g ai/ha, preemergence, 0 to 100 scale (0 no effect, 100 complete control); for Pigweed plant response rating (0 to 100 scale): Preemergence, 500 g ai/ha, 0 is no effect, 100 is complete control"}, "[5]": {"test_system": "ragweed (common ragweed, Ambrosia elatior)", "assay": "Test A preemergence", "settings": "for Plant response rating, Ragweed: 125 g ai/ha, preemergence, 0 to 100 scale (0 no effect, 100 complete control); for Ragweed plant response rating (0 to 100 scale): Preemergence, 500 g ai/ha, 0 is no effect, 100 is complete control", "in_short": "as §1"}, "[6]": {"test_system": "ryegrass, Italian (Italian ryegrass, Lolium multiflorum)", "assay": "Test A preemergence", "settings": "for Plant response rating, Ryegrass, Italian: 125 g ai/ha, preemergence, 0 to 100 scale (0 no effect, 100 complete control); for Ryegrass, Italian plant response rating (0 to 100 scale): Preemergence, 500 g ai/ha, 0 is no effect, 100 is complete control", "in_short": "as §1"}, "[7]": {"test_system": "Galium (catchweed bedstraw, Galium aparine)", "assay": "Test A postemergence", "in_short": "as §1"}, "[8]": {"test_system": "Kochia (Kochia scoparia)", "assay": "Test A postemergence", "in_short": "as §1"}, "[9]": {"test_system": "barnyardgrass (Echinochloa crus-galli)", "assay": "Test A postemergence", "in_short": "as §1"}, "[10]": {"test_system": "blackgrass (Alopecurus myosuroides)", "assay": "Test A postemergence", "in_short": "as §1"}, "[11]": {"test_system": "corn (Zea mays)", "assay": "Test A postemergence", "in_short": "as §1"}, "[12]": {"test_system": "giant foxtail (Setaria faberii)", "assay": "Test A postemergence", "in_short": "as §1"}, "[13]": {"test_system": "pigweed (Amaranthus retroflexus)", "assay": "Test A postemergence", "in_short": "as §1"}, "[14]": {"test_system": "ragweed (common ragweed, Ambrosia elatior)", "assay": "Test A postemergence", "in_short": "as §1"}, "[15]": {"test_system": "ryegrass, Italian (Italian ryegrass, Lolium multiflorum)", "assay": "Test A postemergence", "in_short": "as §1"}, "[16]": {"test_system": "wheat (Triticum aestivum)", "assay": "Test A postemergence", "in_short": "as §1"}, "[17]": {"test_system": "barnyardgrass (Echinochloa crus-galli)", "assay": "Test B flooded paddy test", "settings": "Flood, 0 to 100 scale where 0 is no effect and 100 is complete control, 13 to 15 d", "in_short": "(§2)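 Compound goes directly into floodwater once pots are flooded 3 cm above soil, targeting plants at two leaves; the water depth is then held for the test duration. Plants sit 13–15 d in a greenhouse and are rated visually, 100 denoting complete control.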"}, "[18]": {"test_system": "ducksalad (Heteranthera limosa)", "assay": "Test B flooded paddy test", "settings": "Flood, 0 to 100 scale where 0 is no effect and 100 is complete control, 13 to 15 d", "in_short": "as §2"}, "[19]": {"test_system": "rice (Oryra sativa)", "assay": "Test B flooded paddy test", "settings": "Flood, 0 to 100 scale where 0 is no effect and 100 is complete control, 13 to 15 d", "in_short": "as §2"}, "[20]": {"test_system": "sedge, umbrella (small-flower umbrella sedge, Cyperus difformis)", "assay": "Test B flooded paddy test", "settings": "Flood, 0 to 100 scale where 0 is no effect and 100 is complete control, 13 to 15 d", "in_short": "as §2"}, "[21]": {"settings": "500 g ai/ha, postemergence, 0 to 100 scale, 0 no effect, 100 complete control"}, "[22]": {"settings": "Postemergence, 125 g ai/ha, visual injury, 0 to 100 scale (0 no effect, 100 complete control), approx. 10 d"}, "[23]": {"settings": "125 g ai/ha, postemergence, visual injury rating on 0 to 100 scale (0 no effect, 100 complete control), approx. 10 d"}}}
{"smiles": "CC(C)Oc1cccc(C2CN(C)C(=O)C2C(=O)Nc2ccc(F)cc2F)c1", "note": "(stereo not drawn) [Compound 378]", "values": [{"measurement": "Plant response rating, Kochia", "setting": "[1]", "result": 80}, {"measurement": "Kochia plant response rating (0 to 100 scale)", "setting": "[1]", "result": 90}, {"measurement": "Plant response rating, Barnyardgrass", "setting": "[2]", "result": 20}, {"measurement": "Barnyardgrass plant response rating (0 to 100 scale)", "setting": "[2]", "result": 90}, {"measurement": "Plant response rating, Foxtail, Giant", "setting": "[3]", "result": 90}, {"measurement": "Foxtail, Giant plant response rating (0 to 100 scale)", "setting": "[3]", "result": 100}, {"measurement": "Plant response rating, Pigweed", "setting": "[4]", "result": 60}, {"measurement": "Pigweed plant response rating (0 to 100 scale)", "setting": "[4]", "result": 80}, {"measurement": "Plant response rating, Ragweed", "setting": "[5]", "result": 10}, {"measurement": "Ragweed plant response rating (0 to 100 scale)", "setting": "[5]", "result": 50}, {"measurement": "Plant response rating, Ryegrass, Italian", "setting": "[6]", "result": 50}, {"measurement": "Ryegrass, Italian plant response rating (0 to 100 scale)", "setting": "[6]", "result": 80}, {"measurement": "Plant response rating, Galium", "setting": "[7]; [21]", "result": 70}, {"measurement": "Plant response rating, Galium", "setting": "[7]; [22]", "result": 60}, {"measurement": "Plant response rating, Kochia", "setting": "[8]; [21]", "result": 70}, {"measurement": "Plant response rating, Kochia", "setting": "[8]; [22]", "result": 50}, {"measurement": "Plant response rating, Barnyardgrass", "setting": "[9]; [21]", "result": 90}, {"measurement": "Plant response rating, Barnyardgrass", "setting": "[9]; [22]", "result": 80}, {"measurement": "Plant response rating, Blackgrass", "setting": "[10]; [21]", "result": 70}, {"measurement": "Plant response rating, Blackgrass", "setting": "[10]; [22]", "result": 50}, {"measurement": "Plant response rating, Corn", "setting": "[11]; [21]", "result": 80}, {"measurement": "Plant response rating, Corn", "setting": "[11]; [22]", "result": 50}, {"measurement": "Plant response rating, Foxtail, Giant", "setting": "[12]; [21]", "result": 80}, {"measurement": "Plant response rating, Foxtail, Giant", "setting": "[12]; [22]", "result": 80}, {"measurement": "Plant response rating, Pigweed", "setting": "[13]; [21]", "result": 50}, {"measurement": "Plant response rating, Pigweed", "setting": "[13]; [22]", "result": 0}, {"measurement": "Plant response rating, Ragweed", "setting": "[14]; [21]", "result": 50}, {"measurement": "Plant response rating, Ragweed", "setting": "[14]; [22]", "result": 20}, {"measurement": "Plant response rating, Ryegrass, Italian", "setting": "[15]; [21]", "result": 70}, {"measurement": "Plant response rating, Ryegrass, Italian", "setting": "[15]; [22]", "result": 40}, {"measurement": "Plant response rating, Wheat", "setting": "[16]; [21]", "result": 50}, {"measurement": "Plant response rating, Wheat", "setting": "[16]; [22]", "result": 40}, {"measurement": "Plant response rating, Barnyardgrass", "setting": "[17]; 250 g ai/ha", "result": 70}, {"measurement": "Plant response rating, Ducksalad", "setting": "[18]; 250 g ai/ha", "result": 30}, {"measurement": "Plant response rating, Rice", "setting": "[19]; 250 g ai/ha", "result": 0}, {"measurement": "Plant response rating, Sedge, Umbrella", "setting": "[20]; 250 g ai/ha", "result": 0}]}
{"smiles": "O=C1NCC(c2cccc(OCC(F)F)c2)C1C(=O)Nc1cccc(F)c1F", "note": "(stereo not drawn) [Compound 389]", "values": [{"measurement": "Plant response rating, Kochia", "setting": "[1]", "result": 0}, {"measurement": "Kochia plant response rating (0 to 100 scale)", "setting": "[1]", "result": 0}, {"measurement": "Plant response rating, Barnyardgrass", "setting": "[2]", "result": 70}, {"measurement": "Barnyardgrass plant response rating (0 to 100 scale)", "setting": "[2]", "result": 70}, {"measurement": "Plant response rating, Foxtail, Giant", "setting": "[3]", "result": 80}, {"measurement": "Foxtail, Giant plant response rating (0 to 100 scale)", "setting": "[3]", "result": 90}, {"measurement": "Plant response rating, Pigweed", "setting": "[4]", "result": 0}, {"measurement": "Pigweed plant response rating (0 to 100 scale)", "setting": "[4]", "result": 0}, {"measurement": "Plant response rating, Ragweed", "setting": "[5]", "result": 0}, {"measurement": "Ragweed plant response rating (0 to 100 scale)", "setting": "[5]", "result": 0}, {"measurement": "Plant response rating, Ryegrass, Italian", "setting": "[6]", "result": 0}, {"measurement": "Ryegrass, Italian plant response rating (0 to 100 scale)", "setting": "[6]", "result": 0}, {"measurement": "Galium plant response rating", "setting": "[7]; [23]", "result": 0}, {"measurement": "Plant response rating, Galium", "setting": "[7]; [21]", "result": 0}, {"measurement": "Kochia plant response rating", "setting": "[8]; [23]", "result": 0}, {"measurement": "Plant response rating, Kochia", "setting": "[8]; [21]", "result": 0}, {"measurement": "Plant response rating, Barnyardgrass", "setting": "[9]; [21]", "result": 70}, {"measurement": "Plant response rating, Barnyardgrass", "setting": "[9]; [22]", "result": 50}, {"measurement": "Plant response rating, Blackgrass", "setting": "[10]; [21]", "result": 0}, {"measurement": "Plant response rating, Blackgrass", "setting": "[10]; [22]", "result": 0}, {"measurement": "Corn plant response rating", "setting": "[11]; [23]", "result": 30}, {"measurement": "Plant response rating, Corn", "setting": "[11]; [21]", "result": 50}, {"measurement": "Foxtail, Giant plant response rating", "setting": "[12]; [23]", "result": 60}, {"measurement": "Plant response rating, Foxtail, Giant", "setting": "[12]; [21]", "result": 70}, {"measurement": "Pigweed plant response rating", "setting": "[13]; [23]", "result": 0}, {"measurement": "Plant response rating, Pigweed", "setting": "[13]; [21]", "result": 20}, {"measurement": "Ragweed plant response rating", "setting": "[14]; [23]", "result": 0}, {"measurement": "Plant response rating, Ragweed", "setting": "[14]; [21]", "result": 0}, {"measurement": "Ryegrass, Italian plant response rating", "setting": "[15]; [23]", "result": 0}, {"measurement": "Plant response rating, Ryegrass, Italian", "setting": "[15]; [21]", "result": 0}, {"measurement": "Wheat plant response rating", "setting": "[16]; [23]", "result": 0}, {"measurement": "Plant response rating, Wheat", "setting": "[16]; [21]", "result": 0}, {"measurement": "Plant response rating, Barnyardgrass", "setting": "[17]; 500 g ai/ha", "result": 60}, {"measurement": "Plant response rating, Ducksalad", "setting": "[18]; 500 g ai/ha", "result": 100}, {"measurement": "Plant response rating, Rice", "setting": "[19]; 500 g ai/ha", "result": 15}, {"measurement": "Plant response rating, Sedge, Umbrella", "setting": "[20]; 500 g ai/ha", "result": 0}]}
